Measurements from US20260206754A1, “HETEROARYL COMPOUNDS FOR THE CONTROL OF INVERTEBRATE PESTS” (priority 2022, published 2026).

Legend:
Assay type in all cases: in vivo
[1] = system: boll weevil (Anthonomus grandis); experiment: B.2 Boll weevil, 96-well microtiter plate diet test with eggs; details: Anthonomus grandis; for mortality at 2500 ppm: 120 h, egg and larval mortality after 5 days, read-out: mortality in comparison with untreated controls; for mortality at 90 ppm: comparative experiment C.4
Method: (§1) If not otherwise specified, the test solutions were prepared as follow: The active compound was dissolved at the desired concentration in a mixture of 1:1 (vol:vol) distilled water:acetone. The test solution was prepared on the day of use.
B.2 Boll Weevil (Anthonomus grandis)
For evaluating control of boll weevil (Anthonomus grandis) the test unit consisted of 96-well-microtiter plates containing an insect diet and 5-10 A. grandis eggs.
The compounds were formulated using a solution containing 75% v/v water and 25% v/v DMSO. Different concentrations of formulated compounds were sprayed onto the insect diet at 5 μl, using a custom-built micro atomizer, at two replications.
After application, microtiter plates were incubated at about 25±1° C. and about 75±5% relative humidity for 5 days. Egg and larval mortality was then visually assessed.

[2] = system: Southern armyworm (Spodoptera eridania), 2nd instar larvae; experiment: B.3 Southern armyworm, 2nd instar larvae, foliar spray on lima bean plants; details: 96 h, 4 days after treatment, read-out: mortality in comparison with untreated controls
Method: B.3 Southern Armyworm (Spodoptera eridania), 2nd Instar Larvae
The active compounds were formulated by a Tecan liquid handler in 100% cyclohexanone as a 10,000-ppm solution supplied in tubes. The 10,000-ppm solution was serially diluted in 100% cyclohexanone to make interim solutions. These served as stock solutions for which final dilutions were made by the Tecan in 50% acetone:50% water (v/v) into 10 or 20 ml glass vials. A non-ionic surfactant (Kinetic@) was included in the solution at a volume of 0.01% (v/v). The vials were then inserted into an automated electrostatic sprayer equipped with an atomizing nozzle for application to plants/insects. Lima bean plants (variety Sieva) were grown 2 plants to a pot and selected for treatment at the 1st true leaf stage. Test solutions were sprayed onto the foliage by an auto-mated electrostatic plant sprayer equipped with an atomizing spray nozzle. The plants were dried in the sprayer fume hood and then removed from the sprayer. Each pot was placed into perforated plastic bags with a zip closure. Ten to 11 armyworm larvae were placed into the bag and the bags zipped closed. Test plants were maintained in a growth room at about 25° C. and about 20-40% relative humidity for 4 days, avoiding direct exposure to fluorescent light (14:10 light:dark photoperiod) to prevent trapping of heat inside the bags. Mortality and reduced feeding were assessed 4 days after treatment, compared to untreated control plants.

[3] = system: yellow fever mosquito (Aedes aegypti); experiment: whole plant or invertebrate; details: for mortality at 90 ppm: comparative experiment C.4, read-out: B.5, 90 ppm (mortality); for mortality at 2500 ppm: 48 h, larval mortality after 2 days, read-out: mortality in comparison with untreated controls
Method: as §1
B.5 Yellow Fever Mosquito (Aedes aegypti)
For evaluating control of yellow fever mosquito (Aedes aegypti) the test unit consisted of 96-well-microtiter plates containing 200 μl of tap water per well and 5-15 freshly hatched A. aegypti larvae.
The active compounds were formulated using a solution containing 75% (v/v) water and 25% (v/v) DMSO. Different concentrations of formulated compounds or mixtures were sprayed onto the insect diet at 2.5 μl, using a custom-built micro atomizer, at two replications.
After application, microtiter plates were incubated at 281° C., 80±5% RH for 2 days. Larval mortality was then visually assessed.

[4] = system: green peach aphid (Myzus persicae); experiment: B.6 Green peach aphid, systemic test with artificial diet under membrane; details: for mortality at 2500 ppm: 72 h, aphid mortality after 3 days, read-out: mortality in comparison with untreated controls
Method: as §1
B.6 Green Peach Aphid (Myzus persicae)
For evaluating control of green peach aphid (Myzus persicae) through systemic means, the test unit consisted of 96-well-microtiter plates containing liquid artificial diet under an artificial membrane.
The compounds were formulated using a solution containing 75% v/v water and 25% v/v DMSO. Different concentrations of formulated compounds were pipetted into the aphid diet, using a custom built pipetter, at two replications.
After application, 5-8 adult aphids were placed on the artificial membrane inside the microtiter plate wells. The aphids were then allowed to suck on the treated aphid diet and incubated at about 23±1° C. and about 50±5% relative humidity for 3 days. Aphid mortality and fecundity was then visually assessed.

[5] = system: tobacco budworm (Heliothis virescens); experiment: B.1 Tobacco budworm, 96-well microtiter plate diet test with eggs; details: for mortality at 2500 ppm: 120 h, egg and larval mortality after 5 days, read-out: mortality in comparison with untreated controls
Method: as §1
B.1 Tobacco Budworm (Heliothis virescens)
For evaluating control of tobacco budworm (Heliothis virescens) the test unit consisted of 96-well-microtiter plates containing an insect diet and 15-25 H. virescens eggs.
The compounds were formulated using a solution containing 75% v/v water and 25% v/v DMSO. Different concentrations of formulated compounds were sprayed onto the insect diet at 10 μl, using a custom-built micro atomizer, at two replications.
After application, microtiter plates were incubated at about 28±1° C. and about 80±5% relative humidity for 5 days. Egg and larval mortality was then visually assessed.

## CC(NC(=O)c1cc(C(F)(F)F)cc(C(F)(F)F)c1)c1nccnc1-n1cc(-c2nccs2)cn1 (stereo not drawn) [I-51]
[1]
  mortality at 2500 ppm: ≥ 75%
  mortality at 90 ppm: 100%
[2]
  mortality at 300 ppm: ≥ 75%
[3]
  mortality at 90 ppm: 100%
  mortality at 2500 ppm: ≥ 75%
[4]; comparative experiment C.4
  mortality at 30 ppm: 100%
[4]
  mortality at 2500 ppm: ≥ 75%
[5]
  mortality at 2500 ppm: ≥ 75%

## CC(NC(=O)c1cc(C(F)(F)F)cc(C(F)(F)F)c1)c1nccnc1-n1cc(-c2cccnc2)nn1 (stereo not drawn) [I-9]
[1]
  mortality at 2500 ppm: ≥ 75%
[1]; 30 ppm, comparative experiment C.3
  mortality at 30 ppm: 100%
[2]
  mortality at 300 ppm: ≥ 75%
[3]
  mortality at 2500 ppm: ≥ 75%
[4]; 90 ppm, comparative experiment C.3
  mortality at 90 ppm: 100%
[4]
  mortality at 2500 ppm: ≥ 75%
[5]
  mortality at 2500 ppm: ≥ 75%

## CC(NC(=O)c1cc(C(F)(F)F)cc(C(F)(F)F)c1)c1nccnc1-n1cc(-c2ccncn2)cn1 (stereo not drawn) [I-42]
[1]
  mortality at 2500 ppm: ≥ 75%
  mortality at 90 ppm: 100%
[2]
  mortality at 300 ppm: ≥ 75%
[3]
  mortality at 90 ppm: 100%
  mortality at 2500 ppm: ≥ 75%
[4]; comparative experiment C.4
  mortality at 30 ppm: 100%
[4]
  mortality at 2500 ppm: ≥ 75%
[5]
  mortality at 2500 ppm: ≥ 75%

## CC(NC(=O)c1cc(C(F)(F)F)cc(C(F)(F)F)c1)c1nccnc1-n1ncc(-c2cccnc2)n1 (stereo not drawn) [I-8]
[1]
  mortality at 2500 ppm: ≥ 75%
[2]
  mortality at 300 ppm: ≥ 75%
[3]
  mortality at 2500 ppm: ≥ 75%
[4]; comparative experiment C.2
  mortality at 30 ppm: 100%
[4]
  mortality at 2500 ppm: ≥ 75%
[5]
  mortality at 2500 ppm: ≥ 75%

## CC(NC(=O)c1cc(C(F)(F)F)cc(C(F)(F)F)c1)c1nccnc1-n1ncc(-c2ccccn2)n1 (stereo not drawn) [I-14, N-[1-[3-[4-(2-pyridyl)triazol-2-yl]pyrazin-2-yl]ethyl]-3,5-bis(trifluoro-methyl)benzamide]
[1]
  mortality at 2500 ppm: ≥ 75%
[2]
  mortality at 300 ppm: ≥ 75%
[3]
  mortality at 2500 ppm: ≥ 75%
[4]; comparative experiment C.1
  mortality at 30 ppm: 100%
[4]
  mortality at 2500 ppm: ≥ 75%
[5]; 90 ppm, comparative experiment C.1
  mortality at 90 ppm: 100%
[5]
  mortality at 2500 ppm: ≥ 75%
